Measured values as given in the supplement of paper PMC10307832.

Tests used:
Assay in all cases: relative viability (nuclei count vs DMSO), 5 days (fraction); higher = more cells survive
LXF-289 = test system: LXF-289
Summary of the method: (§1)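 Relative viability equals treated-well nuclei counts divided by vehicle-well nuclei counts. Counts came from 4× images of lung cancer cell lines grown in 1536-well plates for 5 days after pin-tool dosing on the day after seeding. Dosing used one drug alone or a fixed anchor-drug dose plus five library-drug doses (not always all listed) in √10 steps, and values are medians of duplicate plates.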

RERF-LC-KJ = test system: RERF-LC-KJ
Summary of the method: as §1

NCI-H1792 = test system: NCI-H1792
Summary of the method: as §1

LCLC-103H = test system: LCLC-103H
Summary of the method: as §1

NCI-H1563 = test system: NCI-H1563
Summary of the method: as §1

NCI-H2347 = test system: NCI-H2347
Summary of the method: as §1

NCI-H1355 = test system: NCI-H1355
Summary of the method: as §1

NCI-H1755 = test system: NCI-H1755
Summary of the method: as §1

NCI-H596 = test system: NCI-H596
Summary of the method: as §1

NCI-H727 = test system: NCI-H727
Summary of the method: as §1

NCI-H1651 = test system: NCI-H1651
Summary of the method: as §1

NCI-H650 = test system: NCI-H650
Summary of the method: as §1

NCI-H1915 = test system: NCI-H1915
Summary of the method: as §1

NCI-H460 = test system: NCI-H460
Summary of the method: as §1

NCI-H322M = test system: NCI-H322M
Summary of the method: as §1

NCI-H3122 = test system: NCI-H3122
Summary of the method: as §1

NCI-H520 = test system: NCI-H520
Summary of the method: as §1

NCI-H441 = test system: NCI-H441
Summary of the method: as §1

PC-14 = test system: PC-14
Summary of the method: as §1

NCI-H661 = test system: NCI-H661
Summary of the method: as §1

CC(C)Oc1cc(Nc2nc(N[C@@H](C)c3ccc(F)cn3)ncc2Cl)n[nH]1 [AZ23] + CC(C)C[C@H](NC(=O)[C@H](Cc1ccccc1)NC(=O)c1cnccn1)B(O)O [Bortezomib] (partner 0.002 µM)
relative viability (LXF-289; first compound 0.01 µM): 1.11 | relative viability (LXF-289; first compound 0.03162 µM): 1.05 | relative viability (LXF-289; first compound 0.3162 µM): 0.979 | relative viability (RERF-LC-KJ; first compound 0.01 µM): 1.23 | relative viability (RERF-LC-KJ; first compound 0.03162 µM): 1.31 | relative viability (RERF-LC-KJ; first compound 0.3162 µM): 1.17 | relative viability (NCI-H1792; first compound 0.01 µM): 1.27 | relative viability (NCI-H1792; first compound 0.03162 µM): 1.12 | relative viability (NCI-H1792; first compound 0.3162 µM): 1.06 | relative viability (LCLC-103H; first compound 0.01 µM): 1.01 | relative viability (LCLC-103H; first compound 0.03162 µM): 1.26 | relative viability (LCLC-103H; first compound 0.3162 µM): 1.14 | relative viability (NCI-H1563; first compound 0.01 µM): 0.931 | relative viability (NCI-H1563; first compound 0.03162 µM): 1.01 | relative viability (NCI-H1563; first compound 0.3162 µM): 0.816 | relative viability (NCI-H2347; first compound 0.01 µM): 0.927 | relative viability (NCI-H2347; first compound 0.03162 µM): 1.04 | relative viability (NCI-H2347; first compound 0.3162 µM): 0.979 | relative viability (NCI-H1355; first compound 0.01 µM): 1.33 | relative viability (NCI-H1355; first compound 0.03162 µM): 1.17 | relative viability (NCI-H1355; first compound 0.3162 µM): 1.26 | relative viability (NCI-H1755; first compound 0.01 µM): 1.16 | relative viability (NCI-H1755; first compound 0.03162 µM): 1.07 | relative viability (NCI-H1755; first compound 0.3162 µM): 1.03 | relative viability (NCI-H596; first compound 0.01 µM): 1.17 | relative viability (NCI-H596; first compound 0.03162 µM): 1.06 | relative viability (NCI-H596; first compound 0.3162 µM): 1.1 | relative viability (NCI-H727; first compound 0.01 µM): 0.855 | relative viability (NCI-H727; first compound 0.03162 µM): 0.855 | relative viability (NCI-H727; first compound 0.3162 µM): 0.867 | relative viability (NCI-H1651; first compound 0.01 µM): 0.957 | relative viability (NCI-H1651; first compound 0.03162 µM): 1.02 | relative viability (NCI-H1651; first compound 0.3162 µM): 1.01 | relative viability (NCI-H650; first compound 0.01 µM): 0.71 | relative viability (NCI-H650; first compound 0.03162 µM): 0.946 | relative viability (NCI-H650; first compound 0.3162 µM): 0.84 | relative viability (NCI-H1915; first compound 0.01 µM): 1.26 | relative viability (NCI-H1915; first compound 0.03162 µM): 1.09 | relative viability (NCI-H1915; first compound 0.3162 µM): 1.05 | relative viability (NCI-H460; first compound 0.01 µM): 0.915 | relative viability (NCI-H460; first compound 0.03162 µM): 1.47 | relative viability (NCI-H460; first compound 0.3162 µM): 1.38 | relative viability (NCI-H322M; first compound 0.01 µM): 1.2 | relative viability (NCI-H322M; first compound 0.03162 µM): 1.32 | relative viability (NCI-H322M; first compound 0.3162 µM): 1.19 | relative viability (NCI-H3122; first compound 0.01 µM): 1.04 | relative viability (NCI-H3122; first compound 0.03162 µM): 1.02 | relative viability (NCI-H3122; first compound 0.3162 µM): 1.12 | relative viability (NCI-H520; first compound 0.01 µM): 0.434 | relative viability (NCI-H520; first compound 0.03162 µM): 0.591 | relative viability (NCI-H520; first compound 0.3162 µM): 0.495 | relative viability (NCI-H441; first compound 0.01 µM): 0.833 | relative viability (NCI-H441; first compound 0.03162 µM): 1.05 | relative viability (NCI-H441; first compound 0.3162 µM): 0.678 | relative viability (PC-14; first compound 0.01 µM): 0.774 | relative viability (PC-14; first compound 0.03162 µM): 1.04 | relative viability (PC-14; first compound 0.3162 µM): 0.917 | relative viability (NCI-H661; first compound 0.01 µM): 0.828 | relative viability (NCI-H661; first compound 0.03162 µM): 0.845 | relative viability (NCI-H661; first compound 0.3162 µM): 0.773

Clc1ccc(Nc2nnc(Cc3ccncc3)c3ccccc23)cc1 [Vatalanib] + CC(C)C[C@H](NC(=O)[C@H](Cc1ccccc1)NC(=O)c1cnccn1)B(O)O [Bortezomib] (partner 0.002 µM)
relative viability (LXF-289; first compound 0.04 µM): 1.07 | relative viability (LXF-289; first compound 0.1265 µM): 0.976 | relative viability (LXF-289; first compound 0.4 µM): 0.991 | relative viability (LXF-289; first compound 1.265 µM): 0.931 | relative viability (LXF-289; first compound 4 µM): 0.964 | relative viability (RERF-LC-KJ; first compound 0.04 µM): 1.05 | relative viability (RERF-LC-KJ; first compound 0.1265 µM): 1.1 | relative viability (RERF-LC-KJ; first compound 0.4 µM): 0.958 | relative viability (RERF-LC-KJ; first compound 1.265 µM): 0.904 | relative viability (RERF-LC-KJ; first compound 4 µM): 0.969 | relative viability (NCI-H1792; first compound 0.04 µM): 0.946 | relative viability (NCI-H1792; first compound 0.1265 µM): 0.9 | relative viability (NCI-H1792; first compound 0.4 µM): 0.915 | relative viability (NCI-H1792; first compound 1.265 µM): 0.921 | relative viability (NCI-H1792; first compound 4 µM): 0.972 | relative viability (LCLC-103H; first compound 0.04 µM): 1.07 | relative viability (LCLC-103H; first compound 0.1265 µM): 1.12 | relative viability (LCLC-103H; first compound 0.4 µM): 1.07 | relative viability (LCLC-103H; first compound 1.265 µM): 1.01 | relative viability (LCLC-103H; first compound 4 µM): 1.13 | relative viability (NCI-H1563; first compound 0.04 µM): 0.868 | relative viability (NCI-H1563; first compound 0.1265 µM): 0.855 | relative viability (NCI-H1563; first compound 0.4 µM): 1.09 | relative viability (NCI-H1563; first compound 1.265 µM): 0.814 | relative viability (NCI-H1563; first compound 4 µM): 0.732 | relative viability (NCI-H2347; first compound 0.1265 µM): 0.898 | relative viability (NCI-H2347; first compound 0.4 µM): 0.855 | relative viability (NCI-H2347; first compound 1.265 µM): 0.973 | relative viability (NCI-H2347; first compound 4 µM): 0.865 | relative viability (NCI-H1355; first compound 0.04 µM): 1.18 | relative viability (NCI-H1355; first compound 0.1265 µM): 1.22 | relative viability (NCI-H1355; first compound 0.4 µM): 1.21 | relative viability (NCI-H1355; first compound 1.265 µM): 1.09 | relative viability (NCI-H1355; first compound 4 µM): 1.1 | relative viability (NCI-H1755; first compound 0.04 µM): 0.938 | relative viability (NCI-H1755; first compound 0.1265 µM): 0.926 | relative viability (NCI-H1755; first compound 0.4 µM): 0.992 | relative viability (NCI-H1755; first compound 1.265 µM): 0.88 | relative viability (NCI-H1755; first compound 4 µM): 0.974 | relative viability (NCI-H596; first compound 0.04 µM): 1.2 | relative viability (NCI-H596; first compound 0.1265 µM): 1 | relative viability (NCI-H596; first compound 0.4 µM): 1.01 | relative viability (NCI-H596; first compound 1.265 µM): 1.11 | relative viability (NCI-H596; first compound 4 µM): 1.01 | relative viability (NCI-H727; first compound 0.04 µM): 0.908 | relative viability (NCI-H727; first compound 0.1265 µM): 0.776 | relative viability (NCI-H727; first compound 0.4 µM): 0.827 | relative viability (NCI-H727; first compound 1.265 µM): 0.854 | relative viability (NCI-H727; first compound 4 µM): 0.706 | relative viability (NCI-H1651; first compound 0.04 µM): 0.906 | relative viability (NCI-H1651; first compound 0.1265 µM): 0.917 | relative viability (NCI-H1651; first compound 0.4 µM): 0.959 | relative viability (NCI-H1651; first compound 1.265 µM): 0.941 | relative viability (NCI-H1651; first compound 4 µM): 0.969 | relative viability (NCI-H650; first compound 0.04 µM): 0.891 | relative viability (NCI-H650; first compound 0.1265 µM): 0.736 | relative viability (NCI-H650; first compound 1.265 µM): 0.6 | relative viability (NCI-H650; first compound 4 µM): 0.812 | relative viability (NCI-H1915; first compound 0.04 µM): 0.949 | relative viability (NCI-H1915; first compound 0.1265 µM): 0.923 | relative viability (NCI-H1915; first compound 0.4 µM): 0.993 | relative viability (NCI-H1915; first compound 1.265 µM): 0.936 | relative viability (NCI-H1915; first compound 4 µM): 0.987 | relative viability (NCI-H460; first compound 0.04 µM): 1.07 | relative viability (NCI-H460; first compound 0.1265 µM): 0.919 | relative viability (NCI-H460; first compound 0.4 µM): 1.03 | relative viability (NCI-H460; first compound 1.265 µM): 1.03 | relative viability (NCI-H460; first compound 4 µM): 1.02 | relative viability (NCI-H322M; first compound 0.04 µM): 1.19 | relative viability (NCI-H322M; first compound 0.1265 µM): 1.31 | relative viability (NCI-H322M; first compound 0.4 µM): 1.33 | relative viability (NCI-H322M; first compound 1.265 µM): 1.28 | relative viability (NCI-H322M; first compound 4 µM): 1.08 | relative viability (NCI-H3122; first compound 0.04 µM): 1.01 | relative viability (NCI-H3122; first compound 0.1265 µM): 1.06 | relative viability (NCI-H3122; first compound 0.4 µM): 1.08 | relative viability (NCI-H3122; first compound 1.265 µM): 1.07 | relative viability (NCI-H3122; first compound 4 µM): 1.01 | relative viability (NCI-H520; first compound 0.04 µM): 0.841 | relative viability (NCI-H520; first compound 0.1265 µM): 0.573 | relative viability (NCI-H520; first compound 0.4 µM): 0.677 | relative viability (NCI-H520; first compound 1.265 µM): 0.547 | relative viability (NCI-H520; first compound 4 µM): 0.702 | relative viability (NCI-H441; first compound 0.04 µM): 0.421 | relative viability (NCI-H441; first compound 0.1265 µM): 0.444 | relative viability (NCI-H441; first compound 0.4 µM): 0.52 | relative viability (NCI-H441; first compound 1.265 µM): 0.448 | relative viability (NCI-H441; first compound 4 µM): 0.448 | relative viability (PC-14; first compound 0.04 µM): 1.02 | relative viability (PC-14; first compound 0.1265 µM): 0.849 | relative viability (PC-14; first compound 0.4 µM): 0.969 | relative viability (PC-14; first compound 1.265 µM): 0.852 | relative viability (PC-14; first compound 4 µM): 0.828 | relative viability (NCI-H661; first compound 0.04 µM): 0.801 | relative viability (NCI-H661; first compound 0.1265 µM): 0.71 | relative viability (NCI-H661; first compound 0.4 µM): 0.882 | relative viability (NCI-H661; first compound 1.265 µM): 0.764 | relative viability (NCI-H661; first compound 4 µM): 0.816
